Assay results: patent publication EP3498298A1, “THE USE OF SGC STIMULATORS AND SGC ACTIVATORS ALONE OR IN COMBINATION WITH PDE5 INHIBITORS FOR THE TREATMENT OF BONE DISORDERS INCLUDING OSTEOGENESIS IMPERFECTA (OI)” (Bayer AG, priority 2017, dated 2019)

How the values were obtained:
[1] = test system: ovariectomized female mice; conditions: intraperitoneally, 10µg/kg bolus dose; cited from earlier work
[2] = test system: B6C3Fe a/a-Col1a2 oim /J (OI mice) termed as HOM; assay: 16 week chronic treatment study, micro-CT of femora (bone morphology and architecture) in OI mice; assay type: in vivo; conditions: 300 ppm (300mg/kg chow), 16 weeks; treated female HOM mice compared to untreated female HOM mice; P < 0.05
From the text: (§1) Preferentially mice were used, especially transgenic mice (B6C3Fe a/a-Col1a2 oim /J (Jackson Laboratories)) (Chipman et al. 1993, McBride et al. 1998). These so called OI-mice (OIM, also called HOM mice) carry a mutation in the collagen gen (Col1a2) which reflects the phenotype and clinical situation of patients with […] OI. For the treatment homozygous OIM are used and compared with WT mice which serve as control.
(§2) As read-outs were preferentially used: • semiquantitative RT/PCR (TaqMan PCR) to assess gene expression according to standard procedures • histopathology to assess bone morphology according to standard procedures • high-resolution micro-CTscanner (µCT 35; Scanco Medical AG, Briittisellen, Switzerland) to evaluate bone morphology and architecture (Micro-CT) • three-point bending test to assess mechanical properties of the femora (Mechanical testing)
(§3) A high-resolution micro-CTscanner (µCT 35; Scanco Medical AG, Briittisellen, Switzerland) was used to evaluate bone morphology and architecture. […] The trabecular and cortical parameters were determined according to the guidelines for the assessment of bone microstructure with micro-CT (Bouxsein et al., 2010). […]

[3] = test system: wild-type mice (WT); assay: 16 week chronic treatment study, micro-CT of femora (bone morphology and architecture) in wild-type mice; assay type: in vivo; conditions: 300 ppm (300mg/kg chow), 16 weeks
From the text: as §1, §2, §3

[4] = test system: mice; conditions: cited from earlier work

O=C(O)CCCCN(CCc1ccccc1OCc1ccc(CCc2ccccc2)cc1)Cc1ccc(C(=O)O)cc1 [cinaciguat]
bone density [1]: could increase bone density

Nc1nc(-c2nn(Cc3ccccc3F)c3ncccc23)ncc1C1CC1 [BAY 41-2272, 3-(4-amino-5-cyclopropylpyrimidin-2-yl)-1-(2-fluorobenzyl)-1H-pyrazolo[3,4-b]pyridine]
trabecular number (Tb.N) [2]: increased | trabecular separation (Tb.Sp) [2]: decreased | structural properties of both trabecular and cortical bone [3]: no effect

CCCc1nn(C)c2c(=O)[nH]c(-c3cc(S(=O)(=O)N4CCN(C)CC4)ccc3OCC)nc12 [sildenafil, 3-[2-ethoxy-5-(4-methylpiperazin-1-yl)sulfonyl-phenyl]-7-methy1-9-propy1-2,4,7,8-tetrazabicyclo [4.3.0]nona-3,8,10-trien-5-one]
fracture healing [4]: accelerates fracture healing
